Assays:
[1] = Oral pharmacokinetics in Balb/c mice, single dose 20 or 100 mg/kg; details: Balb/c, mouse, plasma, po
Description: The doses were prepared as 2.0 mg/mL or 10.0 mg/mL in a vehicle of 0.5% (w/v) carboxymethyl cellulose in water and a dose volume of 10 mL/kg b.w. Blood samples were collected at various time points during the next 6 h post dose.

[2] = Further oral pharmacokinetic study in female Balb/c mice, 5, 10 and 20 mg/kg; details: mouse, plasma; for half-life: t½
[3] = 5 mg/kg, Mean, 5 mg/kg single oral dose
[4] = 5 mg/kg, Median, 5 mg/kg single oral dose
[5] = 10 mg/kg, Mean, 10 mg/kg single oral dose
[6] = 10 mg/kg, Median, 10 mg/kg single oral dose
[7] = 20 mg/kg, Mean, 20 mg/kg single oral dose
[8] = 20 mg/kg, Median, 20 mg/kg single oral dose

**Q.** Which results are given for `CC[C@H]1OC(=O)[C@@](C)(F)C(=O)[C@H](C)[C@@H](O[C@@H]2O[C@H](C)C[C@H](N(C)C)[C@H]2O)[C@](C)(OC)C[C@@H](C)C(=O)[C@H](C)[C@H]2N(CCCCn3cc(-c4cccc(N)c4)nn3)C(=O)O[C@]12C` [Form II, solithromycin]?
**A.** Tmax ([1]; female, 20 mg/kg): 0.5 h; concentration at 0 h ([1]; female, 20 mg/kg): 0 ng/mL; concentration at 0.25 h ([1]; female, 20 mg/kg): 6200 ± 1600 ng/mL; concentration at 0.5 h ([1]; female, 20 mg/kg): 8800 ± 800 ng/mL; concentration at 1 h ([1]; female, 20 mg/kg): 7300 ± 900 ng/mL; concentration at 2 h ([1]; female, 20 mg/kg): 6100 ± 1000 ng/mL; concentration at 4 h ([1]; female, 20 mg/kg): 5500 ± 1700 ng/mL; concentration at 6 h ([1]; female, 20 mg/kg): 1300 ± 500 ng/mL; AUC(0-t) ([1]; female, 100 mg/kg): 55000 ng·h/mL; Cmax ([1]; female, 100 mg/kg): 10500 ng/mL; Tmax ([1]; female, 100 mg/kg): 4 h; concentration at 0 h ([1]; female, 100 mg/kg): 0 ng/mL; concentration at 0.25 h ([1]; female, 100 mg/kg): 7300 ± 900 ng/mL; concentration at 0.5 h ([1]; female, 100 mg/kg): 10500 ± 1400 ng/mL; concentration at 1 h ([1]; female, 100 mg/kg): 9600 ± 2200 ng/mL; concentration at 2 h ([1]; female, 100 mg/kg): 9500 ± 2200 ng/mL; concentration at 4 h ([1]; female, 100 mg/kg): 10200 ± 1000 ng/mL; concentration at 6 h ([1]; female, 100 mg/kg): 7800 ± 1100 ng/mL; AUC(0-inf) ([1]; male, 20 mg/kg): 49000 ng·h/mL; AUC(0-t) ([1]; male, 20 mg/kg): 29000 ng·h/mL; Cmax ([1]; male, 20 mg/kg): 6730 ng/mL; Tmax ([1]; male, 20 mg/kg): 0.5 h; concentration at 0 h ([1]; male, 20 mg/kg): 0 ng/mL; concentration at 0.25 h ([1]; male, 20 mg/kg): 4100 ± 800 ng/mL; concentration at 0.5 h ([1]; male, 20 mg/kg): 6700 ± 600 ng/mL; concentration at 1 h ([1]; male, 20 mg/kg): 5900 ± 800 ng/mL; concentration at 2 h ([1]; male, 20 mg/kg): 5600 ± 400 ng/mL; concentration at 4 h ([1]; male, 20 mg/kg): 4900 ± 1100 ng/mL; concentration at 6 h ([1]; male, 20 mg/kg): 2900 ± 600 ng/mL; AUC(0-inf) ([1]; male, 100 mg/kg): 99000 ng·h/mL; AUC(0-t) ([1]; male, 100 mg/kg): 66000 ng·h/mL; Cmax ([1]; male, 100 mg/kg): 10600 ng/mL; Tmax ([1]; male, 100 mg/kg): 4 h; concentration at 0 h ([1]; male, 100 mg/kg): 0 ng/mL; concentration at 0.25 h ([1]; male, 100 mg/kg): 6800 ± 700 ng/mL; concentration at 0.5 h ([1]; male, 100 mg/kg): 6900 ± 1100 ng/mL; concentration at 1 h ([1]; male, 100 mg/kg): 8700 ± 2700 ng/mL; concentration at 2 h ([1]; male, 100 mg/kg): 9300 ± 1200 ng/mL; concentration at 4 h ([1]; male, 100 mg/kg): 10600 ± 1400 ng/mL; concentration at 6 h ([1]; male, 100 mg/kg): 7200 ± 800 ng/mL; AUC(0-t) ([2]; 5 mg/kg, AUC 0-24, Mean, 5 mg/kg single oral dose): 4690 ng·h/mL; AUC(0-t) ([2]; 5 mg/kg, AUC 0-24, Median, 5 mg/kg single oral dose): 4310 ng·h/mL; Cmax [2, 3]: 1850 ng/mL; Cmax [2, 4]: 1800 ng/mL; Tmax [2, 3]: 1.2 h; Tmax [2, 4]: 1 h; half-life [2, 3]: 1.17 h; half-life [2, 4]: 1.12 h; AUC(0-t) ([2]; 10 mg/kg, AUC 0-24, Mean, 10 mg/kg single oral dose): 7580 ng·h/mL; AUC(0-t) ([2]; 10 mg/kg, AUC 0-24, Median, 10 mg/kg single oral dose): 7590 ng·h/mL; Cmax [2, 5]: 2630 ng/mL; Cmax [2, 6]: 2420 ng/mL; Tmax [2, 5]: 1.25 h; Tmax [2, 6]: 1 h; half-life [2, 5]: 1.42 h; half-life [2, 6]: 1.53 h; AUC(0-t) ([2]; 20 mg/kg, AUC 0-24, Mean, 20 mg/kg single oral dose): 20100 ng·h/mL; AUC(0-t) ([2]; 20 mg/kg, AUC 0-24, Median, 20 mg/kg single oral dose): 21700 ng·h/mL; Cmax [2, 7]: 5360 ng/mL; Cmax [2, 8]: 5660 ng/mL; Tmax [2, 7]: 1.1 h; Tmax [2, 8]: 1 h; half-life [2, 7]: 2.46 h; half-life [2, 8]: 2.46 h
